Assay results published in PubChem BioAssay (NCI).
Several values for one entry are separate records, joined by “and”; a condition that tells them apart may be missing. Identical values can stand only once.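 Where inhibition never reached the appropriate level, the endpoint shown equals the highest concentration tested. Otherwise, values were interpolated linearly from a five-concentration, 48-hour dose response in 96-well plates. GI50 is the concentration that inhibits growth by half. TGI is the concentration that stops growth completely.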

Assays:
Test in all cases: DTP human tumour cell line panel, 48 h
ACHN renal = tested on: ACHN renal
HCT-116 colon = tested on: HCT-116 colon
HT29 colon = tested on: HT29 colon
MALME-3M melanoma = tested on: MALME-3M melanoma
OVCAR-3 ovarian = tested on: OVCAR-3 ovarian
SF-539 CNS = tested on: SF-539 CNS
SN12C renal = tested on: SN12C renal
SNB-19 CNS = tested on: SNB-19 CNS
UACC-257 melanoma = tested on: UACC-257 melanoma

Row | Compound | GI50 (ACHN renal) | TGI (ACHN renal) [µM] | GI50 (HCT-116 colon) [µM] | TGI (HCT-116 colon) [µM] | GI50 (HT29 colon) [µM] | TGI (HT29 colon) [µM] | GI50 (MALME-3M melanoma) [µM] | TGI (MALME-3M melanoma) [µM] | GI50 (OVCAR-3 ovarian) [µM] | TGI (OVCAR-3 ovarian) [µM] | GI50 (SF-539 CNS) [µM] | TGI (SF-539 CNS) [µM] | GI50 (SN12C renal) [µM] | TGI (SN12C renal) [µM] | GI50 (SNB-19 CNS) [µM] | TGI (SNB-19 CNS) [µM] | GI50 (UACC-257 melanoma) [µM] | TGI (UACC-257 melanoma) [µM]
1 | COc1cccc(NC(=O)c2ccc(NC3=C(Cl)C(=O)N(Cc4ccccc4)C3=O)cc2)c1 | 6.22 µM | 19 | 15 | 28.3 | 5.74 | 17.4 | 16 | 42.1 | 3.29 | 15.3 | 17.3 | 31 | 17.6 | 37.1 | 19.1 | 60.1 | 16.2 | 38.5
2 | CCC(C)(C)NS(=O)(=O)c1ccccc1 | – | > 100 | – | > 100 | – | > 100 | – | > 100 | – | > 100 | – | > 100 | – | – | – | – | – | > 100
3 | COc1ccc(C[C@H]2NC[C@H](O)[C@H]2OC(C)=O)cc1 | – | 0.122 | – | 0.146 | – | 0.179 | – | 0.708 | – | 0.335 | – | 0.14 | – | 0.253 | – | 0.289 | – | 2.89
4 | CCCCCN(CCCCC)C(=O)[C@H](CCC(=O)OCc1ccccc1)NC(=O)c1cc2ccccc2[nH]1 | – | > 100 | – | > 100 | – | > 100 | – | > 100 | – | > 100 | – | > 100 | – | > 100 | – | > 100 | – | > 100
5 | Cc1ccc(-c2cc(=O)c3cc(C)c(C)c(C(=O)O)c3o2)cc1[N+](=O)[O-] | – | > 100 | – | > 100 | – | > 100 | – | > 100 | – | > 100 | – | > 100 | – | > 100 | – | > 100 | – | > 100
6 | COc1c(Cl)[c]([Hg][O]C(C)=O)c(NCC(C)=O)c(OC)[c]1[Hg][O]C(C)=O | 17.8 µM | 34.5 | – | – | 19.5 | 48.2 | 2.7 | 7.89 | 10.2 | 21.8 | 2.92 | 13.3 | 20.8 | 36.3 | 3.53 | 11.2 | 15.4 | 29.9
7 | CCN(CC)CCOc1ccc(Cc2ccccc2)cc1 | 47.2 µM | > 100 | 34.8 | > 100 | 12.3 | 33.9 | 17.2 | 43.1 | 26.9 | > 100 | 32.1 | > 100 | 48.8 | > 100 | 68.7 | > 100 | 22.5 | 63
8 | C#CCN(Cc1nc2cc(C(F)(F)F)ccc2nc1-c1ccccc1)c1ccc(F)cc1 | 36 µM | > 100 | 20.8 | > 100 | 34.9 | > 100 | 17.9 | 53.5 | 29.8 | > 100 | 37.4 | > 100 | 30.8 | 96 | 34.9 | > 100 | 18.7 | 63
9 | COc1ccc2c(c1)c(-c1ccc(-c3cn(C)c4ccc(OC)cc34)o1)cn2C | 3.74 µM | 18.6 | 88 | > 100 | 22 | > 100 | 52.8 | > 100 | 8.51 | 29.3 | 2.47 | 9.27 | 21.6 | > 100 | 29.8 | > 100 | 27 | > 100
10 | COc1ccc(/C=C2\CCc3ccccc3C2=O)cc1OC | – | > 100 | – | 36.7 | – | > 100 | – | > 100 | – | > 100 | – | 65.9 | – | 95.7 | – | > 100 | – | 43.1
11 | COc1ccc2c(c1OC)C(C=C(c1ccccc1)c1ccccc1)CN(C)C2 (stereo not drawn) | – | > 100 | – | 20.7 | – | 42.7 | – | 38.1 | – | 59.9 | – | 56.6 | – | > 100 | – | > 100 | – | 54.8
12 | CCOc1ccc(N=Cc2ccc3ccccc3n2)cc1 | – | > 100 | – | > 100 | – | > 100 | – | > 100 | – | > 100 | – | > 100 | – | > 100 | – | > 100 | – | > 100
13 | CC1=CC2=C(C#N)C(=O)OC2(C)C(c2ccccc2)C1 (stereo not drawn) | – | > 100 | – | > 100 | – | > 100 | – | > 100 | – | > 100 | – | > 100 | – | > 100 | – | > 100 | – | > 100
14 | Cc1nc(-n2nc(-c3ccccc3)cc2-c2ccccc2)sc1C(=O)/C=C/c1ccc(Cl)cc1 | – | > 100 | – | – | – | 29.6 | – | 52.5 | – | 35.6 | – | 27.4 | – | > 100 | – | – | – | 49.1
15 | CSC1SCC2C(=O)N(C)C(C(C)C)C(=O)OCC(NC(=O)c3cnc4ccccc4n3)C(=O)NC(C)C(=O)N(C)C1C(=O)N(C)C(C(C)C)C(=O)OCC(NC(=O)c1cnc3ccccc3n1)C(=O)NC(C)C(=O)N2C (stereo not drawn) | < 0.001 µM and 0.00186 µM and 0.0075 µM | – | – | – | < 0.001 | – | < 0.001 | – | < 0.001 | – | < 0.001 | – | < 0.001 | – | < 0.001 | – | < 0.001 | –
